Data taken from patent US11578079B2, “SUMO inhibitor compounds and uses thereof” (CITY OF HOPE, priority 2018, dated 2023).

Tests used:
[1] = biological target: T1, SUMO (Homo sapiens, UniProt Q9UBT2); assay: SUMO activity (Table I, biological activities); type: biochemical; design: key: + (less active); ++ (active); +++ (most active)
T1 sequence (Q9UBT2 1-640): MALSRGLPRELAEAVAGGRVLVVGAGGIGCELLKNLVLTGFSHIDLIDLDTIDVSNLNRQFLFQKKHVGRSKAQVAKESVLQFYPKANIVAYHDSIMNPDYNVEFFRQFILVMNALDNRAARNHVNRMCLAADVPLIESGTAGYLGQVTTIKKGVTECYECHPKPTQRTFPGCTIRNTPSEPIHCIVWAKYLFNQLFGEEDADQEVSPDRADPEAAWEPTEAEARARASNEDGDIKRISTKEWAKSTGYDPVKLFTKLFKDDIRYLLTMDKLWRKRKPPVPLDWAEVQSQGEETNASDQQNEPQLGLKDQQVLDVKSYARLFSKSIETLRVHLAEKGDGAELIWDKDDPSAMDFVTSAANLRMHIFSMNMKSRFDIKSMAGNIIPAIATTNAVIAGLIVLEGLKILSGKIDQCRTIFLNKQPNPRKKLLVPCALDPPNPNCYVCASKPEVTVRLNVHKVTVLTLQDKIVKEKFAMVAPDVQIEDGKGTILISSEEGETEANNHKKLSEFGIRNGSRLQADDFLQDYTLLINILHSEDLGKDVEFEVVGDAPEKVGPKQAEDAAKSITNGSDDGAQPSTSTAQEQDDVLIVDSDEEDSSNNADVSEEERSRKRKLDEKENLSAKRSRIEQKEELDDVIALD
T1 sequence (Q9UBE0 1-346 partner): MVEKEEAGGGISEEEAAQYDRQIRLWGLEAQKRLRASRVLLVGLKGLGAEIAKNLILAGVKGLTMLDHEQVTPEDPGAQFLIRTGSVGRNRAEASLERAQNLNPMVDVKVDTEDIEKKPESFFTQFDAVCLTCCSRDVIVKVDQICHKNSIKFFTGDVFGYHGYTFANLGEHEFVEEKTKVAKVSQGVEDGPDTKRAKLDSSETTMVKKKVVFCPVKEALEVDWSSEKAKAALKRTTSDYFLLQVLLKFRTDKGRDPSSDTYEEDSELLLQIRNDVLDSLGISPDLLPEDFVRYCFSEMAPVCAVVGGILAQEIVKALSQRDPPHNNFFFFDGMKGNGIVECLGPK

[2] = system: c-Myc; assay: c-Myc activity (Table I, biological activities); design: key: + (less active); ++ (active); +++ (most active)

| Structure (SMILES) | SUMO [1] | c-Myc [2] |
| --- | --- | --- |
| CCN(CC)CCNC(=O)C1=C(C(=O)OC)C2(C(Cc3ccccc3)Nc3cc(F)cc(Cl)c3)C=CC1O2 (stereo not shown) [Compound 376] | +++ | ++ |
| COC(=O)C1=C(C(=O)Nc2ccc(OC)cc2)C2CCC1(C(Cc1ccccc1)Oc1ccccc1)O2 (stereo not shown) [Compound 350] | + | + |
| CCOC(=O)C1=C(C(=O)Nc2ccc(OC)cc2)C2(C)C=CC1(C(Nc1ccccc1)c1ccc(CN3CCOCC3)cc1)O2 (stereo not shown) [Compound 581] | + | + |
| COC(=O)C1=C(C(=O)NCc2ccncc2)C2C=CC1(C(Cc1ccccc1)Nc1ccccc1)O2 (stereo not shown) [Compound 201] | ++ | + |
| COC(=O)C1=C(C(=O)NC2CN(C(=O)OC(C)(C)C)C2)C2C=CC1(C(Cc1ccccc1)Nc1ccccc1)O2 (stereo not shown) [Compound 404] | ++ | + |
| COC(=O)C1=C(C(=O)OC)C2(C(Cc3ccccc3)Nc3cc(F)cc(Cl)c3)C=CC1O2 (stereo not shown) [Compound 209] | ++ | + |
| CCN(CC)CCNC(=O)C1=C(C(=O)OC)C2(C(Cc3ccccc3)Oc3ccccc3)C=CC1O2 (stereo not shown) [Compound 439] | ++ | ++ |
| C=CCCC(Nc1ccccc1)C12C=CC(O1)C(C(=O)OC)=C2C(=O)OC (stereo not shown) [Compound 181] | ++ | + |
| CCN(CC)CCNC(=O)C1=C(C(=O)OC)C2(C(Cc3ccccc3)Nc3c(F)cccc3F)C=CC1O2 (stereo not shown) [Compound 433] | ++ | + |
| CCOC(=O)C1=C(C(=O)OCC)C2(C(Cc3ccccc3)Nc3ccc(F)cc3F)C=CC1O2 (stereo not shown) [Compound 312] | ++ | + |
| COC(=O)C1=C(C(=O)Nc2ccc(C)c(F)c2)C2C=CC1(C(Oc1ccccc1)c1ccc(CN3CCOCC3)cc1)O2 (stereo not shown) [Compound 496] | + | + |
| COC(=O)C1=C(C(=O)NC2CCN(C)C2)C2C=CC1(C(Cc1ccccc1)Nc1cc(F)cc(Cl)c1)O2 (stereo not shown) [Compound 238] | +++ | ++ |
| CCOC(=O)C1=C(C(=O)Nc2ccc(CN(C)C)cc2)C2C=CC1(C(Nc1ccccc1)c1ccc(CN3CCOCC3)cc1)O2 (stereo not shown) [Compound 565] | + | + |
| COC(=O)C1=C(C(=O)NC2CCN(C)C2)C2C=CC1(C(Cc1ccccc1)Nc1ccc(F)cc1)O2 (stereo not shown) [Compound 263] | +++ | ++ |
| COC(=O)C1=C(C(=O)Nc2cnc(C)nc2)C2C=CC1(C(Cc1ccccc1)Nc1ccccc1)O2 (stereo not shown) [Compound 478] | +++ | + |
| COC(=O)C1=C(C(=O)Nc2ccccc2)C2C=CC1(C(Cc1ccccc1)Nc1ccccc1)O2 (stereo not shown) [Compound 163] | ++ | + |
| O=C(C1=CC2(C(Cc3ccccc3)Nc3ccccc3)C=CC1O2)c1ccc(F)cc1 (stereo not shown) [Compound 525] | + | + |
| CCN(CC)CCNC(=O)C1=C(C(=O)OC)C2(C(Cc3ccc(Cl)cc3)Nc3cc(F)cc(F)c3)C=CC1O2 (stereo not shown) [Compound 427] | ++ | ++ |
| CCOC(=O)C1=C(C(=O)Nc2ccc(C)c(F)c2)C2C=CC1(C(Nc1cccc(C)c1)c1ccc(CN3CCOCC3)cc1)O2 (stereo not shown) [Compound 623] | ++ | + |
| CCOC(=O)C1=C(C(=O)Nc2ccc(C)c(F)c2)C2(C)C=CC1(C(Nc1ccccc1)c1ccc(CN3CCOCC3)cc1)O2 (stereo not shown) [Compound 579] | + | + |
| COC(=O)C1=C(C(=O)NC2CCN(C(=O)NCC3CCCO3)CC2)C2C=CC1(C(Cc1ccccc1)Nc1ccccc1)O2 (stereo not shown) [Compound 382] | ++ | + |
| COC(=O)C1=C(C(=O)OC)C2(C(Cc3ccccc3)N(C(=O)C(F)(F)F)c3ccccc3)C=CC1O2 (stereo not shown) [Compound 554] | ++ | ++ |
| COC(=O)C1=C(C(=O)NC2CCN(C(C)C)CC2)C2CCC1(C(Cc1ccccc1)Nc1ccccc1)O2 (stereo not shown) [Compound 366] | + | + |
| COC(=O)C1=C(C(=O)NC2CCN(C)CC2)C2(C(Cc3ccccc3)Nc3cc(F)cc(F)c3)C=CC1O2 (stereo not shown) [Compound 311] | ++ | ++ |
| CCOC(=O)C1=C(C(=O)Nc2ccc(C)nc2)C2C=CC1(C(Nc1ccccc1)c1ccc(CN3CCOCC3)cc1)O2 (stereo not shown) [Compound 573] | + | + |

| Structure (SMILES) | SUMO [1] | c-Myc [2] |
| --- | --- | --- |
| COC(=O)C1=C(C(=O)NCC2CCCO2)C2C=CC1(C(Cc1ccccc1)Nc1ccccc1)O2 (stereo not shown) [Compound 405] | ++ | + |
| CNC(=O)C1=C(C(=O)Nc2ccccc2)C2C=CC1(C(Cc1ccccc1)Nc1ccccc1)O2 (stereo not shown) [Compound 305] | + | + |
| COC(=O)C1=C(C(=O)NCCN(C)C)C2C=CC1(C(Cc1ccccc1)Nc1ccc(F)cc1)O2 (stereo not shown) [Compound 264] | +++ | ++ |
| COC(=O)C1=C(C(=O)NC2CCN(C(=O)NCc3cccnc3)CC2)C2C=CC1(C(Cc1ccccc1)Nc1ccccc1)O2 (stereo not shown) [Compound 384] | ++ | + |
| COC(=O)C1=C(C(=O)NCCN(C)C)C2C=CC1(C(Cc1ccc(Cl)cc1)Nc1cc(F)cc(F)c1)O2 (stereo not shown) [Compound 426] | ++ | ++ |
| COC(=O)C1=C(C(=O)NCCN(C)C)C2C=CC1(C(Cc1ccccc1)Nc1ccccc1)O2 (stereo not shown) [Compound 224] | +++ | ++ |
| CCOC(=O)C1=C(C(N)=O)C2C=CC1(C(Nc1ccccc1)c1ccc(CN3CCOCC3)cc1)O2 (stereo not shown) [Compound 552] | ++ | + |
| COC(=O)C1=C(C(=O)NCCN(C)C)C2C=CC1(C(Cc1cccc(F)c1)Nc1cc(F)cc(F)c1)O2 (stereo not shown) [Compound 435] | +++ | ++ |
| COC(=O)C1=C(C(=O)NC2CCN(C)CC2)C2C=CC1(C(Cc1ccccc1)Nc1cc(F)cc(Cl)c1)O2 (stereo not shown) [Compound 219] | ++ | ++ |
| COC(=O)C1=C(C(=O)Nc2ccc(C)nc2)C2CCC1(C(Cc1ccccc1)Nc1ccccc1)O2 (stereo not shown) [Compound 349] | + | + |
| CC(C)(C)OC(=O)C1=C(C(=O)OC(C)(C)C)C2(C(Cc3ccccc3)Nc3ccc(F)cc3F)C=CC1O2 (stereo not shown) [Compound 313] | +++ | + |
| COC(=O)C1=C(C(=O)Nc2ccc(OC)cc2OC)C2C=CC1(C(Cc1ccccc1)Nc1ccccc1)O2 (stereo not shown) [Compound 353] | + | + |
| COC(=O)C1=C(C(=O)Nc2ccc(C)nc2)C2C=CC1(C(Cc1ccccc1)Nc1ccccc1)O2 (stereo not shown) [Compound 289] | ++ | ++ |
| COC(=O)C1=C(C(N)=O)C2C=CC1(C(Cc1ccccc1)Nc1cccc(Oc3ccccc3)c1)O2 (stereo not shown) [Compound 319] | +++ | + |
| CCOc1cccc(NC(Cc2ccccc2)C23C=CC(O2)C(C(=O)NC2CCN(C)CC2)=C3C(=O)OC)c1 (stereo not shown) [Compound 247] | +++ | + |
| COC(=O)C1=C(C(=O)NC2CCN(C(=O)OC(C)(C)C)CC2)C2C=CC1(C(Cc1ccccc1)Nc1cc(F)cc(F)c1)O2 (stereo not shown) [Compound 242] | ++ | + |
| CCN(CC)CCNC(=O)C1=C(C(=O)OC)C2(C(Cc3ccc(F)cc3)Nc3cc(F)cc(Cl)c3)C=CC1O2 (stereo not shown) [Compound 453] | ++ | + |
| COC(=O)C1=C(C(=O)NCC2CCCN2C)C2C=CC1(C(Cc1ccccc1)Nc1ccccc1)O2 (stereo not shown) [Compound 418] | ++ | ++ |
| CCN(CC)CCNC(=O)C1=C(C(=O)OC)C2(C(Cc3ccccc3)Nc3ccc(F)cc3F)C=CC1O2 (stereo not shown) [Compound 412] | ++ | + |
| COC(=O)C1=C(C(=O)NCCN2CCC2)C2C=CC1(C(Cc1ccccc1)Nc1ccccc1)O2 (stereo not shown) [Compound 469] | ++ | + |
| CCOC(=O)C1=C(C(F)(F)F)C2(C(Cc3ccccc3)Oc3ccccc3)C=CC1O2 (stereo not shown) [Compound 513] | ++ | ++ |
| COC(=O)C1=C(C(=O)NCCN2CCOCC2)C2C=CC1(C(Cc1ccccc1)Oc1ccccc1)O2 (stereo not shown) [Compound 326] | ++ | ++ |
| COC(=O)C1=C(C(=O)Nc2ccc(OC)cc2)C2C=CC1(C(Cc1ccccc1)Oc1ccccc1)O2 (stereo not shown) [Compound 325] | ++ | ++ |
| COC(=O)C1=C(C(=O)Nc2ccc(CN3CCOCC3)cc2)C2C=CC1(C(Cc1ccccc1)Nc1ccccc1)O2 (stereo not shown) [Compound 507] | ++ | + |
| CNCCNC(=O)C1=C(C(=O)OC)C2(C(Cc3ccccc3)Nc3ccccc3)C=CC1O2 (stereo not shown) [Compound 437] | + | + |
